biological target: T1, 11-beta-hydroxysteroid dehydrogenase 1 (Homo sapiens, UniProt P28845); experiment: Inhibition of recombinant 11betaHSD1 expressed in CHO cells assessed as [3H]-cortisone to [3H]-cortisol by microscintillation plate reader; format: cell-based; conditions: not given
T1 sequence (P28845 whole entry): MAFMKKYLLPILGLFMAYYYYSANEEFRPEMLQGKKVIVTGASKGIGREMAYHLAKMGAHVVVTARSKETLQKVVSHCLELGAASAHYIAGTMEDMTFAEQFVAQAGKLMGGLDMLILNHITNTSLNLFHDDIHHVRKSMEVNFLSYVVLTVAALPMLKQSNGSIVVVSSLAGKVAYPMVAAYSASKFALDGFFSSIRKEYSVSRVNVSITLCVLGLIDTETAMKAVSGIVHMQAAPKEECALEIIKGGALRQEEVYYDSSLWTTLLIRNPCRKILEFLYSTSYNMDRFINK

| IC50 | Structure (SMILES) |
| --- | --- |
| 0.0213 µM | NC(=O)[C@]12CC3CC(C1)[C@@H](OC(=O)N1CC[C@@H](Nc4nnc(C(F)(F)F)s4)C1)C(C3)C2 |

biological target: T1, 11-beta-hydroxysteroid dehydrogenase 1; experiment: Inhibition of 11betaHSD1 in human platelet assessed as [3H]-cortisone to [3H]-cortisol by microscintillation plate reader; conditions: not given

| IC50 | Structure (SMILES) |
| --- | --- |
| > 0.1 µM | NC(=O)[C@]12CC3CC(C1)[C@@H](OC(=O)N1CC[C@@H](Nc4nnc(C(F)(F)F)s4)C1)C(C3)C2 |

biological target: Cytochrome P450 3A4 (Homo sapiens, UniProt P08684); experiment: Inhibition of CYP3A4; format: ADME; conditions: not given
Sequence (P08684 whole entry): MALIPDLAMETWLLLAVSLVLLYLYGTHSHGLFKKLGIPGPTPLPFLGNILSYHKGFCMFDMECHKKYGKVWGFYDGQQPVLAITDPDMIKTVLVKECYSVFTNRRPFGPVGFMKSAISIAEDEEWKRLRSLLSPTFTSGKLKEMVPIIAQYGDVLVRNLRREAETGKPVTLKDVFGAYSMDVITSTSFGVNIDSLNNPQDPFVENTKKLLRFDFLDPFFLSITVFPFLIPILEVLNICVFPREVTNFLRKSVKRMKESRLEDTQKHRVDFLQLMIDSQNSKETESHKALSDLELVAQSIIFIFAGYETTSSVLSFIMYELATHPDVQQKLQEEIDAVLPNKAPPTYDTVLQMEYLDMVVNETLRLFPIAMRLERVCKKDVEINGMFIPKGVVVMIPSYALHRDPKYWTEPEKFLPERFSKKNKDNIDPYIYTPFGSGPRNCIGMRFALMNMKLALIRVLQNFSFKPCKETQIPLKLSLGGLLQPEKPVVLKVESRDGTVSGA

| Structure (SMILES) | IC50 |
| --- | --- |
| NC(=O)[C@]12CC3CC(C1)[C@@H](OC(=O)N1CC[C@H](Nc4ccc(C(F)(F)F)cn4)C1)C(C3)C2 | 10.3 µM |
| CC(C)(C)OC(=O)N[C@@H]1CCN(C(=O)OC2C3CC4CC(C3)CC2C4)C1 (stereo not given in full) | > 30 µM |
| OC1C2CC3CC(C2)CC1C3 (stereo not given) [ADAMANTAN-2-OL] | > 30 µM |

Now from value to molecule:

| IC50 | Structure (SMILES) |
| --- | --- |
| 3.3 µM | NC(=O)[C@]12CC3CC(C1)[C@@H](OC(=O)N1CC[C@@H](Nc4ncccc4C(F)(F)F)C1)C(C3)C2 |
| 7.2 µM | NC(=O)[C@]12CC3CC(C1)[C@@H](OC(=O)N1CC[C@@H](Nc4ccc(C(F)(F)F)cn4)C1)C(C3)C2 |
| 4.8 µM | NC(=O)[C@]12CC3CC(C1)[C@@H](OC(=O)N1CC[C@@H](Nc4cccc(C(F)(F)F)n4)C1)C(C3)C2 |
| 8.5 µM | NC(=O)[C@]12CC3CC(C1)[C@H](OC(=O)N1CC[C@H](Nc4ncccc4C(F)(F)F)C1)C(C3)C2 |

biological target: Cytochrome P450 2C9 (Homo sapiens, UniProt P11712); experiment: Inhibition of CYP2C9; format: ADME; conditions: not given
Sequence (P11712 whole entry): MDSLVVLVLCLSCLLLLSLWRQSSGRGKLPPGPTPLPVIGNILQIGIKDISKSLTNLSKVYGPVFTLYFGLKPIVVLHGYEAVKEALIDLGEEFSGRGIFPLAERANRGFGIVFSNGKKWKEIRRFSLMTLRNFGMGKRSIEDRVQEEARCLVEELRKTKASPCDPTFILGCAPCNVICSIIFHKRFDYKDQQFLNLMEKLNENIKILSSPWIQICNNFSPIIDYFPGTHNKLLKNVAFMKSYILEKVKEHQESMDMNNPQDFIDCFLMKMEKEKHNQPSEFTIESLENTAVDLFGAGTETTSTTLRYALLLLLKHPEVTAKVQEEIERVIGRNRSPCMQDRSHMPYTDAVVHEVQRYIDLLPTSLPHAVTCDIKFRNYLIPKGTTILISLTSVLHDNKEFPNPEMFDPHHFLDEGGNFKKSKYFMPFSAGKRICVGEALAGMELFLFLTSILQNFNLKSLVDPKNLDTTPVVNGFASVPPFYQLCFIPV

| Structure (SMILES) | IC50 |
| --- | --- |
| NC(=O)[C@]12CC3CC(C1)[C@@H](OC(=O)N1CC[C@H](Nc4ccc(C(F)(F)F)cn4)C1)C(C3)C2 | 2.4 µM |
| CC(C)(C)OC(=O)N[C@@H]1CCN(C(=O)OC2C3CC4CC(C3)CC2C4)C1 (stereo not given in full) | 11.4 µM |
| OC1C2CC3CC(C2)CC1C3 (stereo not given) [ADAMANTAN-2-OL] | 22 µM |

Second part, the molecule after the results:

| IC50 | Structure (SMILES) |
| --- | --- |
| 9.4 µM | NC(=O)[C@]12CC3CC(C1)[C@@H](OC(=O)N1CC[C@@H](Nc4ncccc4C(F)(F)F)C1)C(C3)C2 |
| 4.1 µM | NC(=O)[C@]12CC3CC(C1)[C@@H](OC(=O)N1CC[C@@H](Nc4ccc(C(F)(F)F)cn4)C1)C(C3)C2 |
| 2.4 µM | NC(=O)[C@]12CC3CC(C1)[C@@H](OC(=O)N1CC[C@@H](Nc4cccc(C(F)(F)F)n4)C1)C(C3)C2 |
| 8 µM | NC(=O)[C@]12CC3CC(C1)[C@H](OC(=O)N1CC[C@H](Nc4ncccc4C(F)(F)F)C1)C(C3)C2 |

biological target: Cytochrome P450 2D6 (Homo sapiens, UniProt P10635); experiment: Inhibition of CYP2D6; format: ADME; conditions: not given
Sequence (P10635 whole entry): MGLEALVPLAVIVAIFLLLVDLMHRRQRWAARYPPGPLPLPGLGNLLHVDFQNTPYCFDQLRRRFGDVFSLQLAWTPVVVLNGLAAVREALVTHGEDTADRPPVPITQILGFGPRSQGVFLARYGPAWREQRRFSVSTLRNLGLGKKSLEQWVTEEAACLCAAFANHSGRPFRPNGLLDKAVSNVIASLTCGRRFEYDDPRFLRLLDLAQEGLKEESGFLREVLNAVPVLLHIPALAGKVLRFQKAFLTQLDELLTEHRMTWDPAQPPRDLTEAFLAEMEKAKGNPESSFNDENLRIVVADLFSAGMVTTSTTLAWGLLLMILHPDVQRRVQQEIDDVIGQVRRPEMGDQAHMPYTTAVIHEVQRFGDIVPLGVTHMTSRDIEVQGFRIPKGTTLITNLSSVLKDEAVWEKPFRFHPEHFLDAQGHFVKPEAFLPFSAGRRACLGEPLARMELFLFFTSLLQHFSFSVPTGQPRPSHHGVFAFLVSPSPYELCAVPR

| Structure (SMILES) | IC50 |
| --- | --- |
| NC(=O)[C@]12CC3CC(C1)[C@@H](OC(=O)N1CC[C@H](Nc4ccc(C(F)(F)F)cn4)C1)C(C3)C2 | 11.6 µM |
| CC(C)(C)OC(=O)N[C@@H]1CCN(C(=O)OC2C3CC4CC(C3)CC2C4)C1 (stereo not given in full) | > 30 µM |
| OC1C2CC3CC(C2)CC1C3 (stereo not given) [ADAMANTAN-2-OL] | > 30 µM |

The remaining lines, values ahead:

| IC50 | Structure (SMILES) |
| --- | --- |
| 11.6 µM | NC(=O)[C@]12CC3CC(C1)[C@@H](OC(=O)N1CC[C@@H](Nc4ccc(C(F)(F)F)cn4)C1)C(C3)C2 |
| 5.9 µM | NC(=O)[C@]12CC3CC(C1)[C@@H](OC(=O)N1CC[C@@H](Nc4cccc(C(F)(F)F)n4)C1)C(C3)C2 |
| > 30 µM | NC(=O)[C@]12CC3CC(C1)[C@H](OC(=O)N1CC[C@H](Nc4ncccc4C(F)(F)F)C1)C(C3)C2 |

test system: not listed separately; experiment: in vitro; conditions: rat, liver microsomes

| Structure (SMILES) | half-life |
| --- | --- |
| O=C(OC1C2CC3CC(C2)CC1C3)N1CCCCC1 (stereo not given) | 2 min |
| NC(=O)[C@]12CC3CC(C1)[C@@H](OC(=O)N1CC[C@H](Nc4ccc(C(F)(F)F)cn4)C1)C(C3)C2 | > 60 min |
| CC(C)(C)OC(=O)N[C@@H]1CCN(C(=O)OC2C3CC4CC(C3)CC2C4)C1 (stereo not given in full) | 2 min |
| OC1C2CC3CC(C2)CC1C3 (stereo not given) [ADAMANTAN-2-OL] | 2 min |

Second part, the molecule after the results:

| half-life | Structure (SMILES) |
| --- | --- |
| 30 min | NC(=O)[C@]12CC3CC(C1)[C@@H](OC(=O)N1CC[C@@H](Nc4ncccc4C(F)(F)F)C1)C(C3)C2 |
| 47 min | NC(=O)[C@]12CC3CC(C1)[C@@H](OC(=O)N1CC[C@@H](Nc4ccc(C(F)(F)F)cn4)C1)C(C3)C2 |
| 7 min | NC(=O)[C@]12CC3CC(C1)[C@@H](OC(=O)N1CC[C@@H](Nc4cccc(C(F)(F)F)n4)C1)C(C3)C2 |
| 11 min | NC(=O)[C@]12CC3CC(C1)[C@H](OC(=O)N1CC[C@H](Nc4ncccc4C(F)(F)F)C1)C(C3)C2 |
